# According to US11565992B2, “Methods for separation of azeotrope or azeotrope-like compositions of trifluoroiodomethane (CF3I) and trifluoroacetyl chloride (CF3COCI)” (Honeywell International Inc., priority 2020, dated 2023):
# Columns and labels:
# [1] = Differential solubility in acetonitrile (PTx method, NRTL model); details: at or near ambient conditions; for solubility in acetonitrile: solvent acetonitrile, from NRTL model generated from the PTx data (FIG. 7)
# From the text: Static Vapor-Liquid Equilibrium Methods are a class of experimental techniques that can be used to identify thermodynamic interactions between a solvent (i.e. absorbing species) and a target solute (i.e. species being absorbed). One such technique, known as the PTx method, collects measurements of the total saturation pressure (“P”) exerted by mixtures of known compositions (“x”) at fixed temperatures (“T”) and cell volumes. […] Using data collected from the PTx experiment, as well as pure component properties of constituents of the mixtures, the thermodynamic properties of the mixtures can be accurately characterized by fitting the component's interaction parameters in a well-defined thermodynamic equation; one such equation is the Nonrandom, Two-liquid (NRTL) activity coefficient model by Renon and Prausnitz (Local Compositions in Thermodynamic Excess Functions for Liquid Mixtures, AIChE Journal, Vol. 14, January 1968, pp. 135-144).
# (§1) From a well-characterized thermodynamic model (such as NRTL fit against PTx data), solubility curves can be generated. The solubility is defined as the liquid composition of the solute in the liquid phase at saturation, generally as a function of pressure and temperature. By comparing solubility curves for different solutes, the solvent's selectivity (i.e. preference) towards a particular solute can be identified; the larger the selectivity the more the solvent prefers to absorb one species while rejecting the other.
# Following the same procedure as described in Example 7A, the PTx behavior of trifluoroiodomethane (CF3I) with acetonitrile and trifluoroacetyl chloride (CF3COCl) with acetonitrile was studied at temperatures of −10° C., 10° C., 30° C., and 50° C. […]
# (§2) Using the NRTL model generated from the PTx data, the solubility of both trifluoroiodomethane (CF3I) and trifluoroacetyl chloride (CF3COCl) for a given temperature and pressure can be determined and compared.
# [2] = Differential solubility in toluene (PTx method, NRTL model); details: around ambient conditions; for solubility in toluene: solvent toluene, from NRTL model generated from the PTx data (FIG. 5)
# From the text: One such technique, known as the PTx method, collects measurements of the total saturation pressure (“P”) exerted by mixtures of known compositions (“x”) at fixed temperatures (“T”) and cell volumes. […] Using data collected from the PTx experiment, as well as pure component properties of constituents of the mixtures, the thermodynamic properties of the mixtures can be accurately characterized by fitting the component's interaction parameters in a well-defined thermodynamic equation; one such equation is the Nonrandom, Two-liquid (NRTL) activity coefficient model by Renon and Prausnitz (Local Compositions in Thermodynamic Excess Functions for Liquid Mixtures, AIChE Journal, Vol. 14, January 1968, pp. 135-144).
# as §1
# A set of volume calibrated PTx cells were used to measure the solubility characteristics of trifluoroiodomethane (CF3I) in toluene as well as trifluoroacetyl chloride (CF3COCl) in toluene. Mixtures of trifluoroiodomethane (CF3I) and toluene as well as trifluoroacetyl chloride (CF3COCl) and toluene were gravimetrically prepared into evacuated PTx cells. […] Once at equilibrium, recognized when temperature and pressures of each cell remain stable for several hours, the local temperature and saturation pressures of each cell were recorded and adjustments for the next set point were made. […]
# as §2
# [3] = Differential solubility in mineral oil (PTx method, NRTL model); details: solvent mineral oil; at or near ambient conditions; from NRTL model generated from the PTx data (FIG. 6)
# From the text: as §1
# Following the same procedure described in Example 7A, the PTx behavior of trifluoroiodomethane (CF3I) with mineral oil and trifluoroacetyl chloride (CF3COCl) with mineral oil was studied at temperatures of 0° C., 20° C., 40° C., and 60° C. Unlike toluene (a single aromatic hydrocarbon entity), the mineral oil solvent comprised a mixture several types of hydrocarbons such as alkanes, cycloalkanes, and others. From the pressure-temperature-composition data, the binary interaction parameters of trifluoroiodomethane (CF3I) with mineral oil and trifluoroacetyl chloride (CF3COCl) with mineral oil for the NRTL activity coefficient model were identified.
# as §2
smiles,measurement,setting,value
CC#N [acetonitrile],selectivity of solvent towards CF3I over CF3COCl,[1]; acetonitrile,about 2.5 times
Cc1ccccc1 [toluene],selectivity of solvent towards CF3I over CF3COCl,[2]; toluene,about 3.5 times
O=C(Cl)C(F)(F)F [trifluoroacetyl chloride],solubility in acetonitrile,[1],about 15.8 mass %
same,solubility in toluene,[2],about 11.6 mass %
same,solubility in mineral oil,[3],about 3.6 mass %
FC(F)(F)I [trifluoroiodomethane],solubility in acetonitrile,[1],about 39.0 mass %
same,solubility in toluene,[2],about 40.8 mass %
same,solubility in mineral oil,[3],about 12.2 mass %
